From the CheMixHub viscosity set
“And” between values parts separate entries of the source, which are not always exact repeats. Equal values may be shown once. ± gives the uncertainty stated by the source.

CC(C)CCO
Conditions | viscosity
293.15 K, 101.33 kPa | 4.579 ± 0.046 mPa·s
298.1 K, 101 kPa | 3.841 ± 0.079 mPa·s and 3.798 ± 0.0052 mPa·s
298.15 K, 100 kPa | 3.74 ± 0.062 mPa·s
298.15 K, 101.3 kPa | 3.48 ± 0.095 mPa·s
298.15 K, 101.33 kPa | 3.581 ± 0.043 mPa·s
303.15 K, 101.3 kPa | 2.95 ± 0.081 mPa·s and 2.958 ± 0.034 mPa·s and 2.96 ± 0.036 mPa·s
308.15 K, 100 kPa | 2.654 ± 0.059 mPa·s
308.15 K, 101 kPa | 2.805 ± 0.044 mPa·s and 2.61 ± 0.06 mPa·s and 2.881 ± 0.033 mPa·s
308.15 K, 101.3 kPa | 2.53 ± 0.069 mPa·s
308.15 K, 101.33 kPa | 2.59 ± 0.032 mPa·s
313.15 K, 101.3 kPa | 2.21 ± 0.061 mPa·s
313.15 K, 101.33 kPa | 2.537 ± 0.025 mPa·s and 2.391 ± 0.028 mPa·s
318.15 K, 101 kPa | 2.05 ± 0.04 mPa·s and 2.23 ± 0.026 mPa·s
323.15 K, 101 kPa | 1.867 ± 0.036 mPa·s and 1.974 ± 0.023 mPa·s
323.15 K, 101.33 kPa | 1.827 ± 0.022 mPa·s

CCCCCCCCBr
101 kPa
Conditions | viscosity [mPa·s]
293.15 K | 1.544 ± 0.063
303.55 K | 1.406 ± 0.057
313.65 K | 1.204 ± 0.049

CNCCO
viscosity
Conditions | 293.15 K | 298.15 K | 303.15 K | 308.15 K | 313.15 K | 318.15 K | 323.15 K
101 kPa | – | – | 8.596 ± 0.1 mPa·s | 7.075 ± 0.084 mPa·s | 5.892 ± 0.07 mPa·s | 4.949 ± 0.059 mPa·s | 4.204 ± 0.05 mPa·s
101.3 kPa | 13.23 ± 0.35 mPa·s | 10.63 ± 0.54 mPa·s | 8.612 ± 0.44 mPa·s and 8.535 ± 0.23 mPa·s | 7.07 ± 0.36 mPa·s and 7.014 ± 0.18 mPa·s | 5.883 ± 0.3 mPa·s and 5.841 ± 0.15 mPa·s | 4.953 ± 0.25 mPa·s and 4.919 ± 0.13 mPa·s | 4.214 ± 0.21 mPa·s and 4.186 ± 0.11 mPa·s
101.33 kPa | – | 12 ± 0.23 mPa·s | 9.528 ± 0.19 mPa·s | – | 6.396 ± 0.13 mPa·s | – | –

Cc1cccc(Cl)c1
viscosity
Conditions | 303.15 K | 308.15 K | 313.15 K | 318.15 K
100 kPa | 0.743 ± 0.05 mPa·s | 0.701 ± 0.05 mPa·s | 0.663 ± 0.05 mPa·s | 0.624 ± 0.05 mPa·s
101 kPa | 0.751 ± 0.013 mPa·s and 0.743 ± 0.02 mPa·s | 0.701 ± 0.02 mPa·s | 0.652 ± 0.011 mPa·s and 0.663 ± 0.019 mPa·s | 0.624 ± 0.018 mPa·s

CC(CC(C)(C)C)CP(=O)(O)CC(C)CC(C)(C)C (stereo unspecified)
Conditions | viscosity [mPa·s]
298.15 K, 101 kPa | 120 ± 2.2

CNC(C)=O
viscosity
Conditions | 293.15 K | 298.15 K | 303.15 K | 303.18 K | 308.15 K | 313 K | 313.15 K | 318.15 K
101 kPa | 5.56 ± 0.34 mPa·s | 4.771 ± 0.29 mPa·s | 4.087 ± 0.25 mPa·s and 3.822 ± 0.25 mPa·s (2×) | 3.65 ± 0.03 mPa·s | 3.535 ± 0.21 mPa·s | 3.012 mPa·s | 3.078 ± 0.19 mPa·s and 2.904 ± 0.2 mPa·s | 2.764 ± 0.17 mPa·s and 2.607 ± 0.18 mPa·s
101.33 kPa | – | – | – | – | 3.38 ± 0.025 mPa·s | – | 3.012 ± 0.016 mPa·s and 3.004 ± 0.023 mPa·s | 2.673 ± 0.02 mPa·s

N#C[C-](C#N)C#N.OCCC[n+]1ccccc1
101 kPa
Conditions | viscosity [mPa·s]
293.15 K | 126.3 ± 13
298.15 K | 92.54 ± 9.5
303.15 K | 69.51 ± 7.1
308.15 K | 53.84 ± 5.4
313.15 K | 42.53 ± 4.3
318.15 K | 34.64 ± 3.5
323.15 K | 28.1 ± 2.8

CCOCCO
viscosity
Conditions | 293.15 K | 298.15 K | 303 K | 303.15 K | 308.15 K | 313 K | 313.15 K | 318.15 K | 323.15 K
100 kPa | – | 1.92 ± 0.017 mPa·s | – | 1.682 ± 0.015 mPa·s | – | – | – | – | –
101 kPa | 2.054 ± 0.21 mPa·s | 1.814 ± 0.024 mPa·s | 1.67 ± 0.29 mPa·s | – | 1.487 ± 0.15 mPa·s and 1.453 ± 0.15 mPa·s and 1.469 ± 0.06 mPa·s | 1.341 ± 0.26 mPa·s | 1.336 ± 0.13 mPa·s and 1.341 ± 0.032 mPa·s and 1.368 ± 0.056 mPa·s | 1.279 ± 0.052 mPa·s | 1.065 ± 0.11 mPa·s
101.3 kPa | 2.04 ± 0.1 mPa·s | 1.819 ± 0.092 mPa·s | – | 1.631 ± 0.083 mPa·s | 1.402 ± 0.009 mPa·s and 1.47 ± 0.074 mPa·s | – | 1.332 ± 0.068 mPa·s | 1.212 ± 0.062 mPa·s | 1.108 ± 0.056 mPa·s
101.33 kPa | – | – | – | – | – | – | – | 1.18 ± 0.05 mPa·s | –

Cn1cc[n+](CCCC#N)c1.O=S(=O)([O-])C(F)(F)F
101 kPa
Conditions | viscosity [mPa·s]
293.15 K | 811.5 ± 76
298.15 K | 580.6 ± 48
303.15 K | 422.5 ± 30
308.15 K | 310.1 ± 19
313.15 K | 230.6 ± 12
318.15 K | 177.1 ± 7.8
323.15 K | 141.4 ± 5.4

CCCCCCCCCCOC(C)=O
Conditions | viscosity [mPa·s]
303.15 K, 101.3 kPa | 2.145 ± 0.016

C[C@@H]1CCCC[C@H]1O
101 kPa
Conditions | viscosity [mPa·s]
298.15 K | 37.35 ± 0.49
303.15 K | 25.29 ± 0.38

FC(F)(F)C(F)(F)C(F)(F)C(F)(F)C(F)(F)C(F)(F)F
101 kPa
Conditions | viscosity [mPa·s]
298 K | 0.635 ± 0.014
303 K | 0.589 ± 0.013
308 K | 0.548 ± 0.012
